Data as given in PMC12573178, “Substrate-Guided Development of HDAC11-Selective Inhibitors Featuring α‑Amino Amide Zinc-Binding Groups” (ACS Omega, 2025).

Biological target: T1, SIRT2 (Homo sapiens, UniProt Q8IXJ6)
T1 sequence (Q8IXJ6 1-389): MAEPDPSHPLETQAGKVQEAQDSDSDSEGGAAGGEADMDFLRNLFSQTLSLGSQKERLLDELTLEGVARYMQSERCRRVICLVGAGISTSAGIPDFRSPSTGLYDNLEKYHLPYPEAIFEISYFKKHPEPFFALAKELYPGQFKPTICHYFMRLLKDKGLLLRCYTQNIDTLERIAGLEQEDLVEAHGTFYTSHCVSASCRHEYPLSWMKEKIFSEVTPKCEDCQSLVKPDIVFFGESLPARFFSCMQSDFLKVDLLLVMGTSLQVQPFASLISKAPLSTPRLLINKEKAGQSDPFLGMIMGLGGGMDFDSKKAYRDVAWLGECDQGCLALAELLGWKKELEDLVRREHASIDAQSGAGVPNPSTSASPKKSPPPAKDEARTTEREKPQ
Experiment: SIRT2 inhibition assays (continuous / discontinuous demyristoylation)
Assay type: biochemical
Description: Inhibition of the enzymatic activity of HDACs was performed continuously for HDAC8, HDAC11, and SIRT2 and discontinuously for SIRT2, 3, and 6 using adequate substrates as described previously. , Experimental details are given in the Supporting Information.
A. HDAC and SIRT deacylase activity assays
Continuous in vitro HDAC inhibition assays
The inhibitors were tested using 384-well plates (GreinerONe). After 5 min of incubation of the inhibitors together with the respective enzymes (HDAC8 = 2 nM, HDAC11 = 20 nM, SIRT2 = 1 nM), the reactions were always started by the addition of substrate for the Zn2+-dependent HDAC and by the addition of NAD+ for SIRT2. […]
The fluorescence increase was followed for 1 h with two reads per min using a PerkinElmer Envision 2104 multilabel plate reader. […] The measured values were normalized accordingly. […] The data were fitted using the GraphPad Prism8 software and kinetic values calculated through non-linear regression analysis. […]
Reactions were stopped after 20 min by adding a constant volume of reaction mixture to stop solution (5 % acetonitrile (ACN) (v/v) and 1 % trifluoroacetic acid (TFA) (v/v) in dd. H 2O). The samples were analysed using HPLC-UV/VIS at λ Abs = 220 nm, λ Ex = 320 nm und λ Em = 420 nm. […]
100 nM, SIRT3: 200 nM, SIRT6: 500 nM). […] The samples were analysed using HPLC-UV/VIS at λ Abs = 360 nm. […]

SMILES: CCCCCCCCCCCCSC[C@@H](N)C(=O)NCCCC[C@@H]1NC(=O)[C@H](CCC(N)=O)NC1=O [Compound 31]
- IC50: > 20 µM
- inhibition at 50 µM (50 μM 31): 41.5%
